The supplement of paper PMC10627819

What was measured:
[1] = test system: S. aureus DSM 20231; assay: fitness (endpoint OD595 vs no drug) (fraction); higher = more growth
How it was run: (§1)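 Background-subtracted growth curves were the basis for fitness, taken as the optical density at entry into stationary phase over the robust mean of no-drug control wells. A cap of 1 was applied. The curves came from OD595 readings every 30 min for 14 h at 37 °C, in 384-well plates seeded at OD595 0.01 with 30 µl, or 55 µl for S. pneumoniae.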

[2] = test system: S. aureus Newman; assay: as above
How it was run: as §1

[3] = test system: S. pneumoniae D39V; assay: as above
How it was run: as §1

[4] = test system: S. aureus DSM 20231; assay: Bliss interaction score (quartile over a dose matrix) (fitness difference); higher = more antagonism (negative = synergy)
How it was run: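 Growth was read as OD595 when cultures entered stationary phase, and each value was divided by the plate's robust no-drug mean and capped at 1. This normalised ratio is the fitness value, and fitness for each single drug came from the combination data. The Bliss score subtracts the expected fitness, taken as the product, from the observed fitness and is given as quartiles across technical, biological and donor/recipient replicates.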
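For Bliss interaction score (quartile over a dose matrix) in this document: first quartile when negative (synergy) and third quartile when positive (antagonism).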

CO[C@@]12[C@H](COC(N)=O)C3=C(C(=O)C(C)=C(N)C3=O)N1C[C@@H]1N[C@@H]12 [Mitomycin C] + C[n+]1ccc(-c2cc[n+](C)cc2)cc1 [Paraquat]
fitness
Conditions	first compound 0.001075 µg/mL	first compound 0.00215 µg/mL	first compound 0.0043 µg/mL	first compound 0.0156 µg/mL	first compound 0.0312 µg/mL	first compound 0.0625 µg/mL
[1], partner 1.25 µg/mL	–	–	–	0.717	0.684	0.563
[1], partner 2.5 µg/mL	–	–	–	0.691	0.678	0.577
[1], partner 5 µg/mL	–	–	–	0.668	0.67	0.557
[2], partner 1.25 µg/mL	–	–	–	0.666	0.675	0.527
[2], partner 2.5 µg/mL	–	–	–	0.675	0.651	0.527
[2], partner 5 µg/mL	–	–	–	0.696	0.676	0.467
[3], partner 1.5 µg/mL	0.955	0.94	0.862	–	–	–
[3], partner 3 µg/mL	0.954	0.911	0.842	–	–	–
[3], partner 6 µg/mL	0.961	0.919	0.783	–	–	–

fitness, [3], one replicate
Conditions	first compound 0.002 µg/mL	first compound 0.004 µg/mL	first compound 0.008 µg/mL
partner 1.5 µg/mL	0.852	0.77	0.553
partner 3 µg/mL	0.862	0.781	0.592
partner 6 µg/mL	0.867	0.778	0.558

CO[C@@]12[C@H](COC(N)=O)C3=C(C(=O)C(C)=C(N)C3=O)N1C[C@@H]1N[C@@H]12 [Mitomycin C] + Cc1cc(NS(=O)(=O)c2ccc(N)cc2)no1 [Sulfamethoxazol]
fitness
Conditions	first compound 0.001075 µg/mL	first compound 0.00215 µg/mL	first compound 0.0043 µg/mL	first compound 0.0156 µg/mL	first compound 0.0312 µg/mL	first compound 0.0625 µg/mL
[1], partner 1 µg/mL	–	–	–	0.703	0.664	0.534
[1], partner 2 µg/mL	–	–	–	0.686	0.689	0.558
[1], partner 4 µg/mL	–	–	–	0.721	0.684	0.547
[2], partner 1 µg/mL	–	–	–	0.779	0.66	0.546
[2], partner 2 µg/mL	–	–	–	0.777	0.698	0.559
[2], partner 4 µg/mL	–	–	–	0.73	0.622	0.516
[3], partner 1 µg/mL	0.886	0.851	0.773	–	–	–
[3], partner 2 µg/mL	0.894	0.873	0.779	–	–	–
[3], partner 4 µg/mL	0.921	0.913	0.787	–	–	–

fitness, one replicate
Conditions	first compound 0.002 µg/mL	first compound 0.004 µg/mL	first compound 0.008 µg/mL	first compound 0.0156 µg/mL	first compound 0.0312 µg/mL	first compound 0.0625 µg/mL
[2], partner 8 µg/mL	–	–	–	0.993	0.823	0.658
[3], partner 1 µg/mL	0.81	0.724	0.496	–	–	–
[3], partner 2 µg/mL	0.727	0.686	0.459	–	–	–
[3], partner 4 µg/mL	0.739	0.7	0.513	–	–	–

CO[C@@]12[C@H](COC(N)=O)C3=C(C(=O)C(C)=C(N)C3=O)N1C[C@@H]1N[C@@H]12 [Mitomycin C] + Cc1ncc([N+](=O)[O-])n1CCO [Metronidazole]
Conditions	fitness
[1], first compound 0.0156 µg/mL, partner 0.625 µg/mL	0.775
[1], first compound 0.0156 µg/mL, partner 1.25 µg/mL	0.873
[1], first compound 0.0156 µg/mL, partner 2.5 µg/mL	0.799
[1], first compound 0.0312 µg/mL, partner 0.625 µg/mL	0.756
[1], first compound 0.0312 µg/mL, partner 1.25 µg/mL	0.782
[1], first compound 0.0312 µg/mL, partner 2.5 µg/mL	0.779
[1], first compound 0.0625 µg/mL, partner 0.625 µg/mL	0.593
[1], first compound 0.0625 µg/mL, partner 1.25 µg/mL	0.606
[1], first compound 0.0625 µg/mL, partner 2.5 µg/mL	0.643
[2], first compound 0.0156 µg/mL, partner 0.625 µg/mL	0.75
[2], first compound 0.0156 µg/mL, partner 1.25 µg/mL	0.766
[2], first compound 0.0156 µg/mL, partner 2.5 µg/mL	0.709
[2], first compound 0.0312 µg/mL, partner 0.625 µg/mL	0.649
[2], first compound 0.0312 µg/mL, partner 1.25 µg/mL	0.698
[2], first compound 0.0312 µg/mL, partner 2.5 µg/mL	0.569
[2], first compound 0.0625 µg/mL, partner 0.625 µg/mL	0.524
[2], first compound 0.0625 µg/mL, partner 1.25 µg/mL	0.517
[2], first compound 0.0625 µg/mL, partner 2.5 µg/mL	0.369
[3], first compound 0.001075 µg/mL, partner 1.25 µg/mL	0.972
[3], first compound 0.001075 µg/mL, partner 2.5 µg/mL	0.974
[3], first compound 0.001075 µg/mL, partner 5 µg/mL	0.93
[3], first compound 0.002 µg/mL, partner 1.073 µg/mL	0.853
[3], first compound 0.002 µg/mL, partner 2.145 µg/mL	0.812
[3], first compound 0.002 µg/mL, partner 4.29 µg/mL	0.791
[3], first compound 0.00215 µg/mL, partner 1.25 µg/mL	0.971
[3], first compound 0.00215 µg/mL, partner 2.5 µg/mL	0.984
[3], first compound 0.00215 µg/mL, partner 5 µg/mL	0.933
[3], first compound 0.004 µg/mL, partner 1.073 µg/mL	0.802
[3], first compound 0.004 µg/mL, partner 2.145 µg/mL	0.806
[3], first compound 0.004 µg/mL, partner 4.29 µg/mL	0.742
[3], first compound 0.0043 µg/mL, partner 1.25 µg/mL	0.857
[3], first compound 0.0043 µg/mL, partner 2.5 µg/mL	0.852
[3], first compound 0.0043 µg/mL, partner 5 µg/mL	0.836
[3], first compound 0.008 µg/mL, partner 1.073 µg/mL	0.72
[3], first compound 0.008 µg/mL, partner 4.29 µg/mL	0.735

fitness, [2], one replicate
Conditions	first compound 0.0156 µg/mL	first compound 0.0312 µg/mL	first compound 0.0625 µg/mL
partner 0.781 µg/mL	0.737	0.703	0.581
partner 1.562 µg/mL	0.731	0.689	0.625
partner 3.124 µg/mL	0.704	0.747	0.584

CO[C@@]12[C@H](COC(N)=O)C3=C(C(=O)C(C)=C(N)C3=O)N1C[C@@H]1N[C@@H]12 [Mitomycin C] + Cc1onc(-c2ccccc2)c1C(=O)N[C@@H]1C(=O)N2[C@@H]1SC(C)(C)[C@@H]2C(=O)O [Oxacillin]
Conditions	fitness
[1], first compound 0.0156 µg/mL, partner 0.0156 µg/mL	0.586
[1], first compound 0.0156 µg/mL, partner 0.0312 µg/mL	0.458
[1], first compound 0.0156 µg/mL, partner 0.0625 µg/mL	0.389
[1], first compound 0.0312 µg/mL, partner 0.0156 µg/mL	0.581
[1], first compound 0.0312 µg/mL, partner 0.0312 µg/mL	0.499
[1], first compound 0.0312 µg/mL, partner 0.0625 µg/mL	0.432
[1], first compound 0.0625 µg/mL, partner 0.0156 µg/mL	0.544
[1], first compound 0.0625 µg/mL, partner 0.0312 µg/mL	0.474
[1], first compound 0.0625 µg/mL, partner 0.0625 µg/mL	0.348
[2], first compound 0.0156 µg/mL, partner 0.0156 µg/mL	0.672
[2], first compound 0.0156 µg/mL, partner 0.0312 µg/mL	0.616
[2], first compound 0.0156 µg/mL, partner 0.0625 µg/mL	0.485
[2], first compound 0.0312 µg/mL, partner 0.0156 µg/mL	0.571
[2], first compound 0.0312 µg/mL, partner 0.0312 µg/mL	0.534
[2], first compound 0.0312 µg/mL, partner 0.0625 µg/mL	0.423
[2], first compound 0.0625 µg/mL, partner 0.0156 µg/mL	0.421
[2], first compound 0.0625 µg/mL, partner 0.0312 µg/mL	0.307
[2], first compound 0.0625 µg/mL, partner 0.0625 µg/mL	0.111
[3], first compound 0.001075 µg/mL, partner 0.01 µg/mL	0.973
[3], first compound 0.001075 µg/mL, partner 0.02 µg/mL	0.957
[3], first compound 0.002 µg/mL, partner 0.01 µg/mL	0.838
[3], first compound 0.002 µg/mL, partner 0.02 µg/mL	0.764
[3], first compound 0.002 µg/mL, partner 0.04 µg/mL	0.219
[3], first compound 0.00215 µg/mL, partner 0.01 µg/mL	0.974
[3], first compound 0.00215 µg/mL, partner 0.02 µg/mL	0.968
[3], first compound 0.00215 µg/mL, partner 0.04 µg/mL	0.605
[3], first compound 0.004 µg/mL, partner 0.01 µg/mL	0.813
[3], first compound 0.004 µg/mL, partner 0.02 µg/mL	0.735
[3], first compound 0.004 µg/mL, partner 0.04 µg/mL	0.227
[3], first compound 0.0043 µg/mL, partner 0.01 µg/mL	0.891
[3], first compound 0.0043 µg/mL, partner 0.02 µg/mL	0.822
[3], first compound 0.008 µg/mL, partner 0.01 µg/mL	0.664
[3], first compound 0.008 µg/mL, partner 0.02 µg/mL	0.636
[3], first compound 0.008 µg/mL, partner 0.04 µg/mL	0.241

CO[C@@]12[C@H](COC(N)=O)C3=C(C(=O)C(C)=C(N)C3=O)N1C[C@@H]1N[C@@H]12 [Mitomycin C] + Cn1nnc(-c2ccc(-c3ccc(N4C[C@H](CO)OC4=O)cc3F)cn2)n1 [Tedizolid]
fitness
Conditions	partner 0.03125 µg/mL	partner 0.0625 µg/mL	partner 0.125 µg/mL	partner 0.25 µg/mL	partner 0.5 µg/mL
[1], first compound 0.0156 µg/mL	–	0.701	0.652	0.281	–
[1], first compound 0.0312 µg/mL	–	0.692	0.597	0.225	–
[1], first compound 0.0625 µg/mL	–	0.511	0.47	0.2	–
[2], first compound 0.0156 µg/mL	–	0.653	0.612	0.177	–
[2], first compound 0.0312 µg/mL	–	0.61	0.587	0.084	–
[2], first compound 0.0625 µg/mL	–	0.519	0.379	0.0559	–
[3], first compound 0.001075 µg/mL	–	–	0.76	0.688	0.313
[3], first compound 0.002 µg/mL	0.825	0.821	0.749	–	–
[3], first compound 0.00215 µg/mL	–	–	0.774	0.687	0.273
[3], first compound 0.004 µg/mL	0.745	0.725	0.686	–	–
[3], first compound 0.0043 µg/mL	–	–	0.687	0.617	0.21
[3], first compound 0.008 µg/mL	0.635	0.611	0.518	–	–

CO[C@@]12[C@H](COC(N)=O)C3=C(C(=O)C(C)=C(N)C3=O)N1C[C@@H]1N[C@@H]12 [MitomycinC] + CCCSc1nc(N[C@@H]2C[C@H]2c2ccc(F)c(F)c2)c2nnn([C@@H]3C[C@H](OCCO)[C@@H](O)[C@H]3O)c2n1 [Ticagrelor]
Conditions	Bliss interaction score
[4]	-0.392

CO[C@@]12[C@H](COC(N)=O)C3=C(C(=O)C(C)=C(N)C3=O)N1C[C@@H]1N[C@@H]12 [MitomycinC] + CCCc1nc2c(C)cc(-c3nc4ccccc4n3C)cc2n1Cc1ccc(-c2ccccc2C(=O)O)cc1 [Telmisartan]
Conditions	Bliss interaction score
[4]	-0.162

CO[C@@]12[C@H](COC(N)=O)C3=C(C(=O)C(C)=C(N)C3=O)N1C[C@@H]1N[C@@H]12 [MitomycinC] + COc1ccc2[nH]c([S+]([O-])Cc3ncc(C)c(OC)c3C)nc2c1 [Omeprazole]
Conditions	Bliss interaction score
[4]	0.169
